In patent publication US7943618B2, “Btk protein kinase inhibitors” (Roche Palo Alto LLC, priority 2007, dated 2011):

Experiments:
[1] = target: T1, Btk enzyme (His-tagged, full-length) (Homo sapiens, UniProt Q06187); test: Bruton's Tyrosine Kinase (Btk) Inhibition Assay (33P filtration capture); assay type: biochemical; conditions: Bruton's tyrosine kinase Assay (Example 34), 100 μM ATP
T1 construct: 5-10 nM Btk enzyme (His-tagged, full-length); His

Ramos cells = test: Inhibition of B-cell Activation - B cell FLIPR assay in Ramos cells; assay type: cell-based; conditions: Homo sapiens, 0.5 h, intracellular calcium increase stimulated by 10 μg/mL anti-IgM, compounds incubated 30 min at RT
Description: Inhibition of B-cell Activation—B cell FLIPR assay in Ramos cells
The B cell FLIPR assay is a cell based functional method of determining the effect of potential inhibitors of the intracellular calcium increase from stimulation by an anti-IgM antibody. Ramos cells (human Burkitt's lymphoma cell line. ATCC-No. CRL-1596) were cultivated in Growth Media (described below). One day prior to assay, Ramos cells were resuspended in fresh growth media (same as above) and set at a concentration of 0.5×10^6/mL in tissue culture flasks. On day of assay, cells are counted and set at a concentration of 1×10^6/mL1 in growth media supplemented with 1 μM FLUO-3AM(TefLabs Cat-No. 0116, prepared in anhydrous DMSO and 10% Pluronic acid) in a tissue culture flask, and incubated at 37° C. (4% CO2) for one h. To remove extracellular dye, cells were collected by centrifugation (5 min, 1000 rpm), resuspended in FLIPR buffer (described below) at 1×10^6 cells/mL and then dispensed into 96-well poly-D-lysine coated black/clear plates (BD Cat-No. 356692) at 1×10^5 cells per well. Test compounds were added at various concentrations ranging from 100 μM to 0.03 μM (7 concentrations, details below), and allowed to incubate with cells for 30 min at RT. Ramos cell Ca^2+ signaling was stimulated by the addition of 10 μg/mL anti-IgM (Southern Biotech, Cat-No. 2020-01) and measured on a FLIPR (Molecular Devices, captures images of 96 well plates using a CCD camera with an argon laser at 480nm excitation).
Growth Medium: RPMI 1640 medium with L-glutamine (Invitrogen, Cat-No. 61870-010), 10% Fetal Bovine Serum (FBS, Summit Biotechnology Cat-No. FP-100-05); 1 mM Sodium Pyruvate (Invitrogen Cat. No. 11360-070).
FLIPR buffer: HBSS (Invitrogen, Cat-No. 141175-079), 2 mM CaCl2 (Sigma Cat-No. C-4901), HEPES (Invitrogen, Cat-No. 15630-080), 2.5mM Probenecid (Sigma, Cat-No. P-8761), 0.1% BSA (Sigma, Cat-No. A-7906), 11 mM Glucose (Sigma, Cat-No. G-7528)
Compound dilution details:
In order to achieve the highest final assay concentration of 100 μM, 24 μL of 10 mM compound stock solution (made in DMSO) is added directly to 576 μL of FLIPR buffer. The test compounds are diluted in FLIPR Buffer (using Biomek 2000 robotic pipettor) resulting in the following dilution scheme: vehicle, 1.00×10^−4 M, 1.00×10^−5, 3.16×10^−6, 1.00×10^−6, 3.16×10^−7, 1.00×10^−7, 3.16×10^−8.
Intracellular increases in calcium were reported using a max-min statistic (subtracting the resting baseline from the peak caused by addition of the stimulatory antibody using a Molecular Devices FLIPR control and statistic exporting software. The IC50 was determined using a non-linear curve fit (GraphPad Prism software). Representative results are in Table III.

T1 sequence (Q06187 whole entry): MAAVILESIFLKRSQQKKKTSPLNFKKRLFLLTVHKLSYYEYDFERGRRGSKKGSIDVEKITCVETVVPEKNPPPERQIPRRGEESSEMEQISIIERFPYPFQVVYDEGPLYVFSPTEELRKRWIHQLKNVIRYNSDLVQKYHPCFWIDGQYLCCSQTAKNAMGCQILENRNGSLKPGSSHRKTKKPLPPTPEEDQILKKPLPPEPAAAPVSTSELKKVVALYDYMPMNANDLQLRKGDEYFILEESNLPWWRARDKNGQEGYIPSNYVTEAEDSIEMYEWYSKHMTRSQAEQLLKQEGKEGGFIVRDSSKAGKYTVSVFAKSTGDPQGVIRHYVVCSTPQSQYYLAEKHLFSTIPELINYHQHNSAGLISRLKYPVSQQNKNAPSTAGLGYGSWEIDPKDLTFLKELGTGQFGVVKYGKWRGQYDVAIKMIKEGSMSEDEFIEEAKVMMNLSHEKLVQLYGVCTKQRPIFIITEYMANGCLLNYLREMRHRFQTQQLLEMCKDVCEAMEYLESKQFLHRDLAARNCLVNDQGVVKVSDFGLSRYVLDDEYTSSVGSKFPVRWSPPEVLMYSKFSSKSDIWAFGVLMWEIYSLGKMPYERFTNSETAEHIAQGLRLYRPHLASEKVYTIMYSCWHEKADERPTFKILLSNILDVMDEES

Row | Structure (SMILES) | IC50 ([1]; Table I pyridazinones) | IC50 (Ramos cells) | melting point | IC50 ([1]; Table II pyridinones)
1 | COc1nccc(Nc2cc(-c3cccc(NC(=O)c4ccc(C(C)(C)C)cc4)c3C)nn(C)c2=O)n1 [Compound I-17] | 104 nM | 415 nM | 262 to 264 °C | –
2 | CNC(=O)Nc1cc(-c2cccc(NC(=O)c3ccc(N(C)C)cc3)c2C)cn(C)c1=O [II-13] | – | 552 nM | 291 to 292 °C | 96 nM
3 | Cn1nc(-c2cccc(CC(=O)NCCOC(C)(C)C)c2)cc(Nc2ccc(C(=O)N3CCOCC3)cn2)c1=O [Compound I-32] | 820 nM | 32 nM | 220 to 221 °C | –

The remaining compounds from weak to strong by IC50 (Ramos cells), led by results:

Row | IC50 ([1]; Table I pyridazinones) | IC50 (Ramos cells) | melting point | IC50 ([1]; Table II pyridinones) | Structure (SMILES)
4 | 116 nM | 205 nM | 188.5 to 191 °C | – | Cc1c(-c2cc(Nc3ccc(C(=O)N4CCOCC4)cn3)c(=O)n(C)n2)cccc1-n1cnc2cc(C(C)(C)C)ccc2c1=O [Compound I-8, 7-tert-Butyl-3-(2-methyl-3-{1-methyl-5-[5-(morpholine-4-carbonyl)-pyridin-2-ylamino]-6-oxo-1,6-dihydro-pyridazin-3-yl}-phenyl)-3H-quinazolin-4-one]
5 | – | 4 nM | – | < 10 nM | CCNC(=O)Nc1cc(-c2cccc(NC(=O)c3ccc(C(C)(C)C)cc3)c2CO)cn(C)c1=O [II-56, 4-tert-Butyl-N-{3-[5-(3-ethyl-ureido)-1-methyl-6-oxo-1,6-dihydro-pyridin-3-yl]-2-hydroxymethyl-phenyl}-benzamide]
